Like-named read-outs stand apart in the source and are kept apart here.
Tests used:
MRC-5 cytotoxicity = type: cell-based; settings: human, MRC-5 cells; S1 Data
[1] = Mouse liver microsomal stability; type: in vitro ADME; settings: for microsomal CLint at 0.5 μM: CD1, mouse, liver microsomes
Protocol: The metabolic stability of the compounds was evaluated in human (pool of 200 donors, XenoTech) and mouse liver microsomes (CD1 mouse, GIBCO). Test compounds were prepared at a concentration of 0.5 μM and incubated with 0.25 mg/mL liver microsomes at pH 7.4 and 37°C. The reaction was started by addition of NADPH at […]. Samples were taken at 0, 5, 10, 15, 20 and 30 minutes. The reaction was stopped by the addition of acetonitrile:methanol (1:1) containing an internal standard (tolbutamide at 50 nM). Compounds were quantified by liquid chromatography triple quadrupole mass spectrometry (LC-MS/MS). Peak area ratios (analyte/internal standard) were converted to % remaining using the area ratio at time 0 as 100%. Half-life (t1/2 = ln(2)/k) in minutes and intrinsic clearance (Clint = k x 1000/(0.25)) in μL/min/mg were calculated using a non-linear regression from % remaining versus incubation time. From this plot, the slope (k) was determined. The analysis conditions were: analytical column (Gemini C18, […], Phenomenex), electrospray ionization source (ESI) in positive and negative mode, mobile phase A (water + 0.1% formic acid) and B (acetonitrile + 0.1% formic acid), flow rate of 0.7 mL/min.

[2] = tested on: Leishmania infantum MHOM/MA(BE)/67/ITMAP263 amastigotes; test: L. infantum intracellular amastigote assay in PMM; type: cell-based; settings: for SI: selectivity index (CC50 / IC50): CC50 / L. infantum IC50; for IC50: Leishmania infantum, read-out: L. infantum IC50
Protocol: (§1) Leishmania infantum MHOM/MA(BE)/67/ITMAP263 amastigotes were collected from the spleen of infected donor Golden hamsters. Primary peritoneal mouse macrophages (PMM) were used as host cells for in vitro assays. PMM were collected from Swiss mice after 2 days of peritoneal stimulation with a 2% suspension of potato starch and maintained in RPMI-1640 medium supplemented with 200 mM L-glutamine, antibiotics and 5% FCS at 37°C and 5% CO2. Promastigotes of L. infantum chagasi (luciferase) (MHOM/BR/2005/NLC) obtained as described in Reimão et al.,[27] were grown in M199 medium supplemented with 10% FCS, 0.25% hemin, 32 μg/ml hygromycin and 2% sterile human urine at 25°C and 5% CO2.
(§2) Stock solutions of the compounds at 20 mM were prepared in 100% DMSO. Next, the compounds were serially pre-diluted in DMSO followed by a further dilution in demineralized water to assure a final in-test DMSO concentration below 1%. The compounds were tested at 4-fold dilutions starting at 64 μM.
For the antileishmania in vitro assays, 3×10^4 PMM/well were seeded in 96-well plates. After 24h, 5×10^5 amastigotes/well were added and incubated for 2h at 37°C. Next, the compounds in 4-fold serial dilutions were added and the plates were further incubated for 5 days (37°C, 5% CO2). Parasite burdens were assessed using an inverted microscope after Giemsa staining. The results were expressed as percent reduction in parasite burdens compared to negative control wells (100% growth) and IC50 values were determined. Values represent the geometric mean of at least two independent experiments. Miltefosine was used as the positive control in all plates.

[3] = Experimental distribution coefficient (eLogD); type: physicochemical; settings: pH 7.4
Protocol: To determine the lipophilicity of the compounds, a methodology based on the retention time of molecules in reverse stationary phase (Ascentis RP-Amide HPLC column) was used. The chromatogram was obtained using LC-MS/MS. Test compounds were prepared at 1.0 μg/mL by adding the stock solution at (1:1) mobile phases A:B + internal standard at 200nM (A: 5% methanol in 10mM ammonium acetate pH 7.4, B: 100% methanol), DMSO concentration must be lower than 2%. […] The retention time (in minutes) of each of the eight standards was plotted against their LogD values. The resulting equation for the calibration curve (y = mx + b) was used to calculate the LogD values for the test compounds.

[4] = tested on: PMM (Primary Mouse Macrophages); test: Cytotoxicity on primary peritoneal mouse macrophages; type: cell-based; settings: Mus musculus, Macrophage, read-out: PMM IC50
Protocol: as §1, §2

[5] = Parallel artificial membrane permeability assay (PAMPA); type: in vitro ADME; settings: PAMPA, S1 Data; read-out: PAMPA Pe
Protocol: To determine the passive permeability of the compounds, a 96-well plate containing membranes pre-coated with lipids (Corning Gentest # 353015) was used. The solutions of the compounds were prepared by diluting the stock solutions (10mM) in phosphate buffered saline (PBS) pH 6.5 at a final concentration of 10μM. The solutions diluted in PBS pH 6.5 were then added to the donor portion of the plate (300 μl/well), while PBS pH 7.4 (200 μl/well) was added to the acceptor portion. The two portions of the plate were then coupled, and the system was incubated for 5 h at 37°C. At the end of the incubation, samples were collected from the donor and acceptor plates, and then added to plates containing quench solution (10% water and 90% methanol: acetonitrile (50:50) + 50 nM tolbutamide). The final concentrations of compounds in the donor, acceptor, and initial solution (T0) wells were analyzed using LC-MS/MS. The results were used to calculate an effective permeability (Pe) value. The PAMPA assay was performed in triplicate (n = 3).

[6] = pH 7.4, S1 Data, read-out: MLM CLint
[7] = 120 h, intracellular amastigotes in PMM, 5 days
[8] = reverse stationary phase HPLC column (Ascentis RP-Amide), S1 Data
[9] = reverse-phase HPLC retention (Ascentis RP-Amide column), experimental

| Structure (SMILES) | CC50 (MRC-5 cytotoxicity) [µM] | microsomal CLint at 0.5 μM [1, 6] [µL/min/mg] | SI: selectivity index (CC50 / IC50) [2] | IC50 [2, 7] [µM] | IC50 ([2]; S1 Data) [µM] | eLogD ([3]; experimental) | chromatographic logD [3, 8] | IC50 [4] [µM] | Papp at 5 h, 10 μM [5] [×10⁻⁶ cm/s] | MLM CLint ([1]; S1 Data) [µL/min/mg] | chromatographic logD [3, 9] | MLM CLint ([1]; mouse liver microsome intrinsic clearance) [µL/min/mg] | microsomal CLint at 0.5 μM ([1]; pH 7.4, mouse liver microsome intrinsic clearance, read-out: MLM Clint) [µL/min/mg] | L. infantum IC50 ([2]; intracellular amastigotes in PMM, 5 days) |
| --- | --- | --- | --- | --- | --- | --- | --- | --- | --- | --- | --- | --- | --- | --- |
| CCCn1c(NC(=O)Cc2ccc(F)cc2)nc2ccccc21 [Compound 2, CCCn1c(nc2c1cccc2)NC(Cc3ccc(cc3)F)=O] | > 64 | 2760 | 2 | 15 | 14.8 | 4.0 | 3.97 | 32 | 6.63 |  |  |  |  |  |
| CCCn1c(NC(=O)Cc2ccc(F)cc2)nc2c(F)cccc21 [Compound 5, Fc1cccc2c1nc(NC(=O)Cc3ccc(F)cc3)n2CCC] | > 64 |  | 1 |  | > 64 |  | 3.57 | > 64 | 16.2 | 715 | 3.6 |  |  |  |
| CCCn1c(NC(=O)Cc2ccc(F)cc2)nc2cc(F)c(F)cc21 [Compound 6, Fc1cc(n(CCC)c(NC(=O)Cc2ccc(F)cc2)n3)c3cc1F] | > 64 |  | 29 | 2.2 | 2.19 |  | 4.04 | > 64 | 13.6 |  |  | 399 |  |  |
| CCCn1c(NC(=O)Cc2ccc(F)cc2)nc2ccc(C#N)cc21 [Compound 8, n1c(c2n(CCC)c1NC(=O)Cc3ccc(F)cc3)ccc(C#N)c2] | > 64 | 226 | 1 | 46 | 45.6 | 3.6 | 3.6 | 45.2 | 30.7 |  |  |  | 225 |  |
| CCn1c(NC(=O)Cc2ccc(F)cc2)nc2ccc(F)cc21 [Compound 16, Fc1cc2c(nc(NC(=O)Cc3ccc(F)cc3)n2CC)cc1] | > 64 | 538 |  | 4.4 | 4.35 |  | 3.59 | > 64 | 19.4 |  |  |  |  |  |
| O=C(Cc1ccc(Cl)cc1)Nc1nc2cc(F)ccc2[nH]1 [Compound 18, Fc1ccc([nH]c(NC(Cc2ccc(Cl)cc2)=O)n3)c3c1] | > 64 | 366 |  |  | > 64 |  | 4.26 | > 64 | 6.04 |  | 3.9 |  |  | poor activity |
| CC(C)(C)n1c(NC(=O)Cc2ccc(F)cc2)nc2cc(F)ccc21 [Compound 19, Fc1cc(nc(NC(=O)Cc2ccc(F)cc2)n3C(C)(C)C)c3cc1] | > 64 | 373 |  | 19 | 18.6 |  | 4.04 | > 64 | 6.35 |  | 4 |  |  |  |
| O=C(Cc1ccc(F)cc1)Nc1nc2ccc(F)cc2n1CC1CC1 [Compound 21, Fc1cc2c(nc(NC(=O)Cc3ccc(F)cc3)n2CC4CC4)cc1] | 17.4 | 887 |  | 8.1 | 8.06 |  | 4.12 | > 64 | 19.4 |  |  |  |  |  |
